# In publication PMC7403980, “Anti-Inflammatory Effects of the Novel PIM Kinase Inhibitor KMU-470 in RAW 264.7 Cells through the TLR4-NF-κB-NLRP3 Pathway” (International Journal of Molecular Sciences, 2020):
# Columns and labels:
# Type in all cases: cell-based, murine
# [1] = system: NO production; experiment: LPS-induced NO production in RAW 264.7 cells (Griess reagent); conditions: KMU-470 1 μM 30 min pre-treatment, LPS 50, 200, 1000 ng/mL 24 h
# Description: Figure 3 Inhibitory effect of KMU-470 on LPS-induced NO production and iNOS protein expression, and cell viability in RAW 264.7 cells. (A) The cells were pre-treated with KMU-470 at a concentration of 1 μM for 30 min and then treated with different concentrations of LPS for 24 h. Nitrite in the culture supernatant was collected and evaluated using Griess reagent. Absorbance was measured at 540 nm. *** p < 0.001, ** p < 0.01, * p < 0.05. (B) Cells are pre-treated with two different concentrations of KMU-470 (0.5 μM and 1 μM) for 30 min, followed by treatment with 1 μg/mL LPS for 24 h. β-actin was used as an internal control for Western blot analysis. (C) Image-J program was used to analyze the relative optical density of the iNOS band. (D) Cells were treated with various concentrations of KMU-470 for 24 h. The effects of KMU-470 on cell proliferation and morphological changes were observed by microscopy (X100). (E) The cell proliferation rate was determined by cell count using a trypan blue exclusion assay. *p < 0.05 (F) Effect of KMU-470 on cell viability was measured by XTT assay. *** p < 0.001.
# The amount of nitrite accumulated in the cell culture medium was measured directly using a Griess reagent as an indicator of NO production. […] The OD was measured by spectrophotometer (BMG Labtech, Ortenberg, Germany) at 540 nm. […]
# [2] = system: NF-κB; experiment: LPS-induced phosphorylation of NF-κB in RAW 264.7 cells (Western blot); conditions: KMU-470 0.5 and 1 μM 30 min, LPS 50 ng/mL 6 h
# Description: Figure 5 Effect of KMU-470 on LPS-induced phosphorylation of MAPKs/ IKKs/ NF-κB in RAW 264.7 cells. (A) Cells were pre-treated with 1μM of KMU-470 for 24 h and stimulated with LPS (50 ng/mL) at the indicated times. (C) Cells were pre-treated with 0.5 and 1μM of KMU-470 for 30 min prior to LPS treatment. Total proteins were isolated after 6 h exposure to LPS (50 ng/mL). The protein expression level of MAPKs, p-IKKα/β, and p-NF-κB were assessed using Western blot analyses. (B,D) The relative optical densities of MAPKs, p-IKKα/β, and p-NF-κB bands were analyzed by the Image-J program. *** p < 0.001.
# RAW 264.7 cells were pre-treated with KMU-470 (0.5–1 μM/mL) for 24 h and stimulated with LPS (50 ng/mL) for 6 h. After stimulation, total cells were harvested, washed with PBS buffer, and then the total protein was extracted with a RIPA buffer (0.1 mM sodium orthovanadate, 137 mM NaCl, 15 mM EGTA, 0.1% Triton X-100, 25 mM MOPS, 15 mM MgCl2, 100 μM phenylmethylsulfonyl fluoride, and 20 μM leupeptin, adjusted to pH 7.2). […] Immunoreactive proteins were detected using the ELC Western blot detection system kit (Millipore). Signal intensity was measured using the Chemi Image documentation system (Fusion Fx7, VILBER LOUTMAT). Protein expression levels were quantified using the Image J program.
# [3] = system: NLRP3; experiment: LPS-induced NLRP3 protein expression in RAW 264.7 cells (Western blot); conditions: KMU-470 0.1, 0.5, 1 μM 30 min, LPS 50 ng/mL 6 h
# Description: (§1) Figure 6 Inhibitory effect of KMU-470 on LPS-induced up-regulation of pro-inflammatory cytokines and activation of NLRP3 inflammasome in RAW 264.7 cells. (A–C) Cells were treated with KMU-470 for 30 min and stimulated with LPS 50 ng/mL for 6 h. The levels of IL-1β, TNF-α, and IL-6 were determined using real time PCR. *** p < 0.001, *p < 0.05. (D) Cells were pre-treated with 0.1, 0.5, and 1 μM of KMU-470 for 30 min and treated with LPS 50 ng/mL for 6 h, respectively. Whole cell lysates were isolated and used to measure the protein expression levels of pro-IL-1β and β-actin by Western blot analysis. (E) Cells were pre-treated with 0.1, 0.5, and 1 μM of KMU-470 for 30 min and treated with LPS 50 ng/mL for 6 h, respectively. Whole cell lysates were isolated and used to measure the protein expression levels of […], ASC, pro-caspase-1, pro-IL-1β, and β-actin by Western blot analysis.
# RAW 264.7 cells were pre-treated with KMU-470 (0.5–1 μM/mL) for 24 h and stimulated with LPS (50 ng/mL) for 6 h. […] Immunoreactive proteins were detected using the ELC Western blot detection system kit (Millipore). Signal intensity was measured using the Chemi Image documentation system (Fusion Fx7, VILBER LOUTMAT). Protein expression levels were quantified using the Image J program.
# [4] = system: IL-6; experiment: LPS-induced IL-6 mRNA in RAW 264.7 cells (real time PCR); conditions: KMU-470 30 min, LPS 50 ng/mL 6 h
# Description: as §1
# Total RNA was isolated using TriZol reagent (Life Technologies; Gaithersburg, MD, USA) according to the manufacturer’s protocol. Total RNA absorbance was quantified by using Nanodrop 1000 (Thermo Fisher Scientific, Waltham, MA, USA). […] Real time quantitative PCR was performed by using the SYBR green premix (Roche Diagnostics, Mannheim, Germany) on the LightCycler 480 PCR (system Roche Diagnostics, Mannheim, Germany). […]
compound,measurement,setting,value
"CN(C)CCNc1cncc(-c2ccc3c(c2)/C(=C/c2cnc[nH]2)C(=O)N3)n1 [KMU-470, (Z)-3-((1H-Imidazol-5-yl)methylene)-5-(6-((2-(dimethylamino)ethyl)amino)pyrazin-2-yl)indolin-2-one]",LPS-induced NO production,[1],suppressed
same,LPS-induced phosphorylation of NF-κB,[2],significantly reduced
same,Expression of NLRP3 protein compared with LPS alone group,[3],marked decrease
same,LPS-induced up-regulation of IL-6 (mRNA),[4],significantly decreased
